Assay results reported in patent CN109776561A, “化合物cytorhizins B和C及其制备方法和在制备抗肿瘤药物中的应用” (Institute of Microbiology of Guangdong Academy of Sciences, priority 2019, dated 2019).

How the values were obtained:
Format in all cases: cell-based
[1] = test system: HepG-2 liver cancer cells (肝癌细胞HepG-2); assay: SRB cytotoxicity assay, HepG-2; settings: HepG-2, SRB, 72 h
[2] = test system: NCI-H460 cells (NCI-H460细胞); assay: SRB cytotoxicity assay, NCI-H460; settings: 72 h
[3] = test system: SF-268 nerve cancer cells (神经癌细胞SF-268); assay: SRB cytotoxicity assay, SF-268; settings: SF-268, SRB, 72 h
[4] = test system: MCF-7 breast cancer cells (乳腺癌细胞MCF-7); assay: SRB cytotoxicity assay, MCF-7; settings: MCF-7, SRB, 72 h

Row | SMILES | IC50 [1] [µM] | IC50 [2] [µM] | IC50 [3] [µM] | IC50 [4] [µM]
1 | Cc1cc(O)c2c3c1OC(C)(C)[C@@H](CCl)O[C@]31Oc3cccc(O)c3[C@@]2(O)[C@H]1C [cytorhizin B] | 29.4 | 32.8 | 34.8 | 30.1
2 | N.N.[Cl][Pt][Cl] [顺铂, reference compound] | 2.4 | 1.6 | 3.3 | 3.2
3 | COC[C@H]1O[C@]23Oc4cccc(O)c4[C@](O)(c4c(O)cc(C)c(c42)OC1(C)C)[C@H]3C [cytorhizin C] | 68.6 | 54.7 | 36.8 | 58.6
